Measurements taken from patent US5631401A, “Inhibitors of protein farnesyltransferase and squalene synthase” (Abbott Laboratories, priority 1995, dated 1997).

Each molecule was assayed against T1, Rat brain protein farnesyltransferase (Rattus norvegicus, UniProt Q02293+Q04631) (assay: In vitro inhibition of protein farnesyltransferase (biotin-lamin substrate, scintillation proximity assay)). Conditions: 1 μM (footnote *); read-out: % Inhibition at 1 μM (protein farnesyltransferase, values marked *).
T1 construct: The enzyme was purified according to Reiss, Y., et al., Cell, 62: 81-88 (1990), utilizing steps one through three; from tissue; host or cells: rat brain
Format: biochemical
Description: In vitro inhibition of protein farnesyltransferase may be measured by the following procedure. (Procedures for determination of the inhibition of farnesylation of the oncogene protein Ras are described by Goldstein, et al., J. Biol. Chem., 266: 15575-15578 (1991) and by Singh in U.S. Pat. No. 5,245,061 both of which are incorporated herein by reference.)
Rat brain protein farnesyltransferase activity was measured using the biotin-lamin substrate (which is known to undergo farnesylation in a manner analogous to Ras protein) and radioactive farnesyl diphosphate provided by Amersham Life Science in their commercial scintillation proximity assay kit for the determination of farnesyltransferase. The enzyme was purified according to Reiss, Y., et al., Cell, 62: 81-88 (1990), utilizing steps one through three. The specific activity of the enzyme was approximately 10 nmol substrate farnesylated/mg enzyme/hour. […]

inhibition at 1 µM	SMILES
54%	O=C(O)CN(Cc1ccc(Oc2ccccc2)cc1)C(=O)C1C(C(=O)O)C(C(=O)N(CC(=O)O)Cc2ccc(Oc3ccccc3)cc2)C1C(=O)O (stereo not drawn) [Example 43, (1α,2β,3β,4α)-1,3-Di[N-carboxymethyl-N-(4-phenoxybenzyl)aminocarbonyl]cyclobutane-2,4-dicarboxylic acid]
22%	CCCN(Cc1ccc(Oc2nccs2)cc1)C(=O)C1C(C(=O)O)C(C(=O)N(CCC)Cc2ccc(Oc3nccs3)cc2)C1C(=O)O (stereo not drawn) [Example 55]
23%	CCCN(CC=C=Cc1ccccc1)C(=O)C1C(C(=O)O)C(C(=O)N(CC=C=Cc2ccccc2)CCC)C1C(=O)O (stereo not drawn) [Example 60, (1α,2β,3β,4α)-1,3-Di[N-propyl-N-(4-phenyl-2,3-butadien-1-yl)aminocarbonyl]cyclobutane-2,4-dicarboxylic acid]
52%	CCCN(Cc1ccc(COc2ccccc2)cc1)C(=O)C1C(C(=O)O)C(C(=O)N(CCC)Cc2ccc(COc3ccccc3)cc2)C1C(=O)O (stereo not drawn) [Example 65, (1α,2β,3β,4α)-1,3-Di[N-propyl-N-(4-phenoxymethylbenzyl)aminocarbonyl]-2,4-cyclobutanedicarboxylic acid]
22%	O=C(O)[C@H]1[C@H](C(=O)N(CCO)Cc2ccc(Oc3ccccc3)cc2)[C@H](C(=O)O)[C@H]1C(=O)N(CCO)Cc1ccc(Oc2ccccc2)cc1 [Example 74, (1α,2β,3β,4α)-1,3-Di[N-(2-hydroxyethyl)-N-(4-phenoxybenzyl)aminocarbonyl]cyclobutane-2,4-dicarboxylic acid]
62%	O=C(O)[C@H]1[C@H](C(=O)N(Cc2ccc(Oc3ccccc3)cc2)Cc2ccc3ccccc3c2)[C@H](C(=O)O)[C@H]1C(=O)N(Cc1ccc(Oc2ccccc2)cc1)Cc1ccc2ccccc2c1 [Example 81, (1α,2β,3β,4α)-1,3-Di [N-(4-phenoxybenzyl)-N-(2-methylnaphthyl)aminocarbonyl]cyclobutane-2,4-dicarboxylic acid]
21%	CCCN(C[C@H](C)CCCc1ccccc1)C(=O)[C@H]1[C@H](C(=O)O)[C@H](C(=O)N(CCC)C[C@H](C)CCCc2ccccc2)[C@H]1C(=O)O [Example 82, (1α,2β,3β,4α)-1,3-Di [N-((2R)-2-methyl-5-phenylpentyl)-N-(n-propyl)aminocarbonyl]cyclobutane-2,4-dicarboxylic acid]
58%	C[C@H](CCCc1ccccc1)CN(Cc1ccccc1)C(=O)[C@H]1[C@H](C(=O)O)[C@H](C(=O)N(Cc2ccccc2)C[C@H](C)CCCc2ccccc2)[C@H]1C(=O)O [Example 85, (1α,2β,3β,4α)-1,3-Di[N-benzyl-N-((2R)-5-phenyl-2-methylpentyl)aminocarbonyl]cyclobutane-2,4-dicarboxylic acid]
61%	C[C@H](C/C=C/c1ccccc1)CN(Cc1ccccc1)C(=O)[C@H]1[C@H](C(=O)O)[C@H](C(=O)N(Cc2ccccc2)C[C@H](C)C/C=C/c2ccccc2)[C@H]1C(=O)O [Example 86, (1α,2β,3β,4α)-1,3-Di [N-benzyl-N-{(E)-(2R)-2-methyl-5-phenyl-4-pentenyl}aminocarbonyl]cyclobutane-2,4-dicarboxylic acid]
66%	C[C@H](c1ccccc1)N(Cc1ccc(Oc2ccccc2)cc1)C(=O)[C@H]1[C@H](C(=O)O)[C@H](C(=O)N(Cc2ccc(Oc3ccccc3)cc2)[C@H](C)c2ccccc2)[C@H]1C(=O)O [Example 90]
45%	O=C(O)[C@H]1[C@H](C(=O)N2CC=C(c3ccc(Oc4ccccc4)cc3)CC2)[C@H](C(=O)O)[C@H]1C(=O)N1CC=C(c2ccc(Oc3ccccc3)cc2)CC1 [Example 92, (1α,2α,3β,4β)-1,3-Di[4-(4-phenoxyphenyl)-1,2,3,6-tetrahydropyridin-1-ylcarbonyl]cyclobutane-2,4-dicarboxylic acid]

SMILES	inhibition at 1 µM
CC(=O)OC(CCCN(Cc1ccccc1)C(=O)C1C(C(=O)O)C(C(=O)N(CCCC(OC(C)=O)C(C)Cc2ccccc2)Cc2ccccc2)C1C(=O)O)C(C)Cc1ccccc1 (stereo not drawn) [Example 84, (1α,2β,3β,4α)-1,3-Di [N-benzyl-N-{syn-(4-acetoxy-5-methyl) -6-phenylhexyl}aminocarbonyl]cyclobutane-2,4-dicarboxylic acid]	93%

Same assay, conditions: 10 μM; compared to uninhibited control

inhibition at 10 µM	SMILES
63%	CCCN(Cc1ccc(Oc2ccccc2)cc1)C(=O)[C@H]1[C@H](C(=O)O)[C@H](C(=O)N(C)CC/C=C(\C)CCC=C(C)C)[C@H]1C(=O)O (relative stereo) [Example 41, (1α,2β,3β,4α)-1-[N-Propyl-N-(4-phenoxybenzyl)aminocarbonyl]-3-[N-methyl-N-(homogeranyl)aminocarbonyl]cyclobutane-2,4-dicarboxylic acid]
37%	O=C(O)[C@H]1[C@H](C(=O)N2CCCC(c3ccccc3)C2)[C@H](C(=O)O)[C@H]1C(=O)N1CCCC(c2ccccc2)C1 (relative stereo) [Example 83, (1α,2β,3β,4α)-1,3-Di [(3-phenylpiperidin-1-yl)carbonyl]cyclobutane-2,4-dicarboxylic acid]
24%	O=C(O)[C@H]1[C@H](C(=O)OCc2ccc(Oc3ccccc3)cc2)[C@H](C(=O)O)[C@H]1C(=O)OCc1ccc(Oc2ccccc2)cc1 [Example 36, (1α,2β,3β,4α)-1,3-Di[4-phenoxybenzyloxycarbonyl]cyclobutane-2,4-dicarboxylic acid]
22%	CCCN(Cc1ccc(OC2CCCCC2)cc1)C(=O)[C@H]1[C@H](C(=O)O)[C@H](C(=O)N(CCC)Cc2ccc(OC3CCCCC3)cc2)[C@H]1C(=O)O [Example 37, (1α,2β,3β,4α)-1,3-Di[N-propyl-N-(4-cyclohexyloxybenzyl)aminocarbonyl]cyclobutane-2,4-dicarboxylic acid]
85%	CCCN(CCCCCc1ccccc1)C(=O)[C@H]1[C@H](C(=O)O)[C@H](C(=O)N(CCC)CCCCCc2ccccc2)[C@H]1C(=O)O [Example 38, (1α,2β,3β,4α)-1,3-Di[N-propyl-N-(5-phenylpentyl)aminocarbonyl]cyclobutane-2,4-dicarboxylic acid]
66%	CCCN(CCCCOc1ccccc1)C(=O)[C@H]1[C@H](C(=O)O)[C@H](C(=O)N(CCC)CCCCOc2ccccc2)[C@H]1C(=O)O [Example 39, (1α,2β,3β,4α)-1,3-Di[N-propyl-N-(4-phenoxybutyl)aminocarbonyl]cyclobutane-2,4-dicarboxylic acid]
50%	CCCN(Cc1ccc(Oc2ccccc2)cc1)C(=O)C1C(C(=O)O)C(C(=O)N(CCC)Cc2ccc(Oc3ccccc3)cc2)C1C(=O)O (stereo not drawn) [Example 47, (1α,2β,3β,4α)-1,3-Di[N-propyl-N-(4-phenoxybenzyl)aminocarbonyl]cyclobutane-2,4-dicarboxylic acid]
61%	CCCN(Cc1ccc(Oc2ccc3c(c2)OCO3)cc1)C(=O)C1C(C(=O)O)C(C(=O)N(CCC)Cc2ccc(Oc3ccc4c(c3)OCO4)cc2)C1C(=O)O (stereo not drawn) [Example 48, (1α,2β,3β,4α)-1,3-Di[N-propyl-N-(4-(3,4-methylenedioxyphenoxy)benzyl)aminocarbonyl]cyclobutane-2,4-dicarboxylic acid]
23%	COc1ccc2c(c1)CCN(C(=O)C1C(C(=O)O)C(C(=O)N3CCc4cc(OC)ccc4C3)C1C(=O)O)C2 (stereo not drawn) [Example 49, (1α,2β,3β,4α)-1,3-Di[6-methoxy-1,2,3,4-tetrahydroisoquinolin-2-ylcarbonyl]cyclobutane-2,4-dicarboxylic acid]
35%	CCCN(Cc1ccc(Oc2ccccc2C)cc1)C(=O)C1C(C(=O)O)C(C(=O)N(CCC)Cc2ccc(Oc3ccccc3C)cc2)C1C(=O)O (stereo not drawn) [Example 50, (1α,2β,3β,4α)-1,3-Di[N-propyl-N-(4-(2-methylphenoxy)benzyl)aminocarbonyl]cyclobutane-2,4-dicarboxylic acid]
51%	CCCN(Cc1ccc(Oc2ccccc2)o1)C(=O)C1C(C(=O)O)C(C(=O)N(CCC)Cc2ccc(Oc3ccccc3)o2)C1C(=O)O (stereo not drawn) [Example 52, (1α,2β,3β,4α)-1,3-Di[N-propyl-N-(5-phenoxyfurfuryl)aminocarbonyl]cyclobutane-2,4-dicarboxylic acid]
78%	CCCN(Cc1ccc(Cn2cccc2)cc1)C(=O)C1C(C(=O)O)C(C(=O)N(CCC)Cc2ccc(Cn3cccc3)cc2)C1C(=O)O (stereo not drawn) [Example 56, (1α,2β,3β,4α)-1,3-Di[N-propyl-N-(4-(pyrrol-1-ylmethyl)benzyl)aminocarbonyl]cyclobutane-2,4-dicarboxylic acid]
73%	CCCN(CC#CCc1ccccc1)C(=O)[C@H]1[C@H](C(=O)O)[C@H](C(=O)N(CC#CCc2ccccc2)CCC)[C@H]1C(=O)O [Example 61, (1α,2β,3β,4α)-1,3-Di{N-propyl-N-(4-phenylbut-2-yn-1-yl)aminocarbonyl}cyclobutane-2,4-dicarboxylic acid]
69%	CCCN(Cc1ccc(Nc2ccccc2)cc1)C(=O)C1C(C(=O)O)C(C(=O)N(CCC)Cc2ccc(Nc3ccccc3)cc2)C1C(=O)O (stereo not drawn) [Example 62, (1α,2β,3β,4α)-1,3-Di[N-propyl-N-(4-phenylaminobenzyl)aminocarbonyl]cyclobutane-2,4-dicarboxylic acid]
88%	CCCN(C(=O)C1C(C(=O)O)C(C(=O)N(CCC)c2ccc(Oc3ccccc3)cc2)C1C(=O)O)c1ccc(Oc2ccccc2)cc1 (stereo not drawn) [Example 66, (1α,2β,3β,4α)-1,3-Di[N-propyl-N-(4-phenoxyphenyl)aminocarbonyl]cyclobutane-2,4-dicarboxylic acid]
